Tests used:
Assay in all cases: area under dose-response curve (cell viability) (AUC (arbitrary, % viability x log concentration)); higher = less sensitive (more viable)
Conditions in all cases: 4 days
[1] = test system: U937
Experimental: (§1)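 14 AML cell lines were plated on extracellular-matrix-coated 384-well plates and exposed to each drug at 8 concentrations (4-5 logs within 1e-12 to 1e-4 M, tailored per drug) in duplicate. Viability was read by CellTiter-Glo after 4 days. The dose-response (averaged over duplicates) was fitted to a 4-parameter sigmoid, and the area under the curve was taken as the sensitivity measure.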

[2] = test system: HL60
Experimental: as §1

[3] = test system: PL-21
Experimental: as §1

[4] = test system: THP-1
Experimental: as §1

[5] = test system: MV4.11
Experimental: as §1

[6] = test system: MOLM/13
Experimental: as §1

[7] = test system: OCI-AML2
Experimental: as §1

[8] = test system: KG1
Experimental: as §1

[9] = test system: MOLM/16
Experimental: as §1

[10] = test system: SKM1
Experimental: as §1

Compound | area under dose-response curve [1] | area under dose-response curve [2] | area under dose-response curve [3] | area under dose-response curve [4] | area under dose-response curve [5] | area under dose-response curve [6] | area under dose-response curve [7] | area under dose-response curve [8] | area under dose-response curve [9] | area under dose-response curve [10]
CC(=O)c1c(C)c2cnc(Nc3ccc(N4CCNCC4)cn3)nc2n(C2CCCC2)c1=O | 393 | 474 | 404 | 531 | 423 | 439 | 385 | 534 | 511 | 438
CC(C)CC(=O)Nc1n[nH]c2c1CN(C(=O)C1CCN(C)CC1)C2(C)C | 283 | 522 | 452 | 476 | 352 | 329 | 268 | 556 | 268 | 336
CN1CC[C@@H](NC(=O)Nc2ccc(C#N)cc2)C[C@@H]1c1nc2ccccc2[nH]1 | 608 | 632 | 563 | 655 | 584 | 583 | 559 | 666 | 587 | 624
COc1ccc(-c2cc3c(C)nc(N)nc3n([C@H]3CC[C@H](OCCO)CC3)c2=O)cn1 | 397 | 414 | 403 | 451 | 387 | 423 | 413 | 475 | 378 | 399
COc1ccc2c(c1)CCC1C2CCC2(C)C(NCCCCCCN3C(=O)C=CC3=O)CCC12 (stereo not given) | 589 | 512 | 559 | 608 | 644 | 658 | 656 | 522 | 632 | 608
Cc1cnc(Nc2ccc(OCCN3CCCC3)cc2)nc1Nc1cccc(S(=O)(=O)NC(C)(C)C)c1 | 562 | 617 | 516 | 624 | 392 | 400 | 505 | 532 | 392 | 518
NC(=O)c1ccc(-c2nc(-c3ccccn3)c(-c3ccc4c(c3)OCO4)[nH]2)cc1 | 695 | 824 | 629 | 796 | 665 | 692 | 619 | 800 | 653 | 722
O=C(NC[C@H](O)CO)c1ccncc1Nc1ccc(I)cc1F | 536 | 276 | 325 | 421 | 432 | 520 | 109 | 373 | 402 | 194
O=C(NOC[C@H](O)CO)c1ccc(F)c(F)c1Nc1ccc(I)cc1F | 505 | 209 | 218 | 414 | 344 | 492 | 57.4 | 355 | 350 | 83.9
O=C1NC(=O)/C(=C\c2ccc3nccnc3c2)S1 | 648 | 647 | 612 | 679 | 665 | 637 | 634 | 666 | 618 | 637
O=C1NC(=O)c2c1c1c3ccccc3n3c1c1c2c2ccccc2n1[C@H]1CC[C@@H]3O1 | 679 | 751 | 625 | 750 | 532 | 606 | 571 | 654 | 577 | 656
OCCn1cc(-c2cnc3nnn(Cc4ccc5ncccc5c4)c3n2)cn1 | 604 | 645 | 559 | 662 | 557 | 566 | 540 | 664 | 592 | 616
Nc1ncnc2c1c(I)cn2[C@@H]1O[C@H](CO)[C@@H](O)[C@H]1O [5-Iodotubercidin] | 501 | 457 | 497 | 530 | 313 | 427 | 489 | 422 | 403 | 559
CC1(C)CCC(c2ccc(Cl)cc2)=C(CN2CCN(c3ccc(C(=O)NS(=O)(=O)c4ccc(N[C@H](CCN5CCOCC5)CSc5ccccc5)c(S(=O)(=O)C(F)(F)F)c4)cc3)CC2)C1 [ABT-263] | 620 | 496 | 630 | 612 | 526 | 542 | 504 | 528 | 540 | 626
Cl[TeH]1(Cl)(Cl)OCCO1.N [AS101] | 584 | 703 | 543 | 626 | 582 | 556 | 547 | 605 | 561 | 605
O=C(NC1CCNCC1)c1n[nH]cc1NC(=O)c1c(Cl)cccc1Cl [AT-7519] | 414 | 544 | 431 | 500 | 445 | 431 | 406 | 570 | 514 | 415
CN1CCN(CCOc2cc(OC3CCOCC3)c3c(Nc4c(Cl)ccc5c4OCO5)ncnc3c2)CC1 [AZD0530] | 663 | 818 | 641 | 783 | 617 | 671 | 646 | 749 | 666 | 736

Compound | area under dose-response curve [1] | area under dose-response curve [2] | area under dose-response curve [3] | area under dose-response curve [4] | area under dose-response curve [5] | area under dose-response curve [6] | area under dose-response curve [7] | area under dose-response curve [8] | area under dose-response curve [9] | area under dose-response curve [10]
COc1cc2c(Oc3ccc4[nH]c(C)cc4c3F)ncnc2cc1OCCCN1CCCC1 [AZD2171] | 724 | 785 | 646 | 751 | 656 | 659 | 668 | 307 | 686 | 640
NC(=O)Nc1cc(-c2cccc(F)c2)sc1C(=O)N[C@H]1CCCNC1 [AZD7762] | 341 | 471 | 357 | 365 | 29.7 | 5.84 | 348 | 405 | 387 | 271
Cc1cc(C(=O)NOCCO)c(Nc2ccc(I)cc2F)n(C)c1=O [AZD8330] | 465 | 405 | 205 | 424 | 317 | 416 | 33.6 | 371 | 341 | 44.2
Cn1cnc2c(F)c(Nc3ccc(Br)cc3Cl)c(C(=O)NOCCO)cc21 [AZD-6244] | 657 | 458 | 439 | 627 | 565 | 662 | 338 | 578 | 501 | 358
COc1ccc(-c2ccc3c(N4CCOC[C@@H]4C)nc(N4CCOC[C@@H]4C)nc3n2)cc1CO [AZD-8055] | 310 | 537 | 390 | 379 | 338 | 396 | 394 | 369 | 299 | 413
CNC(=O)c1ccccc1Sc1ccc2c(/C=C/c3ccccn3)n[nH]c2c1 [Axitinib] | 635 | 713 | 582 | 697 | 573 | 610 | 577 | 479 | 577 | 679
Nc1ncn([C@@H]2O[C@H](CO)[C@@H](O)[C@H]2O)c(=O)n1 [Azacitidine] | 623 | 647 | 593 | 667 | 560 | 505 | 532 | 666 | 506 | 564
Cc1ccc(S(=O)(=O)/C=C/C#N)cc1 [BAY 11-7082] | 499 | 474 | 500 | 492 | 494 | 528 | 516 | 495 | 520 | 467
CC(C)(C)c1ccc(S(=O)(=O)/C=C/C#N)cc1 [BAY 11-7085] | 500 | 443 | 506 | 537 | 518 | 533 | 536 | 487 | 476 | 465
Cn1c(=O)n(-c2ccc(C(C)(C)C#N)cc2)c2c3cc(-c4cnc5ccccc5c4)ccc3ncc21 [BEZ-235] | 374 | 512 | 444 | 505 | 436 | 435 | 403 | 483 | 362 | 451
COc1ccc(-c2ccc3ncc4c(c3c2)n(-c2ccc(N3CCNCC3)c(C(F)(F)F)c2)c(=O)n4C)cn1 [BGT-226] | 325 | 452 | 367 | 415 | 399 | 403 | 356 | 354 | 316 | 369
CC[C@@H]1C(=O)N(C)c2cnc(Nc3ccc(C(=O)NC4CCN(C)CC4)cc3OC)nc2N1C1CCCC1 [BI-2536] | 5.36 | 79.3 | 7.31 | 131 | 4.22 | 7.65 | 5.96 | 84.8 | 90 | 110
COC(=O)c1ccc2c(c1)NC(=O)/C2=C(\Nc1ccc(N(C)C(=O)CN2CCN(C)CC2)cc1)c1ccccc1 [BIBF1120] | 698 | 758 | 626 | 758 | 489 | 505 | 660 | 636 | 653 | 677
CN(C)C/C=C/C(=O)Nc1cc2c(Nc3ccc(F)c(Cl)c3)ncnc2cc1O[C@H]1CCOC1 [BIBW 2992] | 625 | 663 | 573 | 664 | 535 | 625 | 600 | 623 | 464 | 561
O=C(/C=C/c1cccc(S(=O)(=O)Nc2ccccc2)c1)NO [Belinostat] | 388 | 550 | 419 | 452 | 348 | 465 | 370 | 399 | 329 | 469
C=C(c1ccc(C(=O)O)cc1)c1cc2c(cc1C)C(C)(C)CCC2(C)C [Bexarotene] | 608 | 661 | 589 | 584 | 339 | 529 | 520 | 662 | 671 | 469
